Reference: PubChem BioAssay (NCI)
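Step 1: Grow cells in 96-well plates. Step 2: Expose to compound for 48 hours at 5 concentrations. Step 3: Interpolate endpoints linearly; if unreached, use highest concentration. At the GI50, growth is halved. TGI: total growth inhibition.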

What was measured:
Test in all cases: DTP human tumour cell line panel, 48 h
786-0 renal = tested on: 786-0 renal
A498 renal = tested on: A498 renal
A549 NSCLC = tested on: A549 NSCLC
ACHN renal = tested on: ACHN renal
BT-549 breast = tested on: BT-549 breast
CAKI-1 renal = tested on: CAKI-1 renal
CCRF-CEM leukemia = tested on: CCRF-CEM leukemia
COLO 205 colon = tested on: COLO 205 colon
DU-145 prostate = tested on: DU-145 prostate
EKVX NSCLC = tested on: EKVX NSCLC
HCC-2998 colon = tested on: HCC-2998 colon
HCT-116 colon = tested on: HCT-116 colon
HCT-15 colon = tested on: HCT-15 colon
HL-60(TB) leukemia = tested on: HL-60(TB) leukemia
HOP-62 NSCLC = tested on: HOP-62 NSCLC
HOP-92 NSCLC = tested on: HOP-92 NSCLC
HS 578T breast = tested on: HS 578T breast
HT29 colon = tested on: HT29 colon
IGROV1 ovarian = tested on: IGROV1 ovarian
K-562 leukemia = tested on: K-562 leukemia
KM12 colon = tested on: KM12 colon
LOX IMVI melanoma = tested on: LOX IMVI melanoma
M14 melanoma = tested on: M14 melanoma
MALME-3M melanoma = tested on: MALME-3M melanoma
MCF7 breast = tested on: MCF7 breast
MDA-MB-231 breast = tested on: MDA-MB-231 breast
MDA-MB-435 = tested on: MDA-MB-435
MOLT-4 leukemia = tested on: MOLT-4 leukemia
NCI-H226 lung = tested on: NCI-H226 lung
NCI-H460 lung = tested on: NCI-H460 lung
NCI-H522 lung = tested on: NCI-H522 lung
NCI/ADR-RES ovarian = tested on: NCI/ADR-RES ovarian
OVCAR-3 ovarian = tested on: OVCAR-3 ovarian
OVCAR-4 ovarian = tested on: OVCAR-4 ovarian
OVCAR-5 ovarian = tested on: OVCAR-5 ovarian
OVCAR-8 ovarian = tested on: OVCAR-8 ovarian
PC-3 prostate = tested on: PC-3 prostate
RPMI-8226 leukemia = tested on: RPMI-8226 leukemia
RXF 393 renal = tested on: RXF 393 renal
SF-268 CNS = tested on: SF-268 CNS
SF-295 CNS = tested on: SF-295 CNS
SF-539 CNS = tested on: SF-539 CNS
SK-MEL-2 melanoma = tested on: SK-MEL-2 melanoma
SK-MEL-28 melanoma = tested on: SK-MEL-28 melanoma
SK-MEL-5 melanoma = tested on: SK-MEL-5 melanoma
SK-OV-3 ovarian = tested on: SK-OV-3 ovarian
SN12C renal = tested on: SN12C renal
SNB-19 CNS = tested on: SNB-19 CNS
SNB-75 CNS = tested on: SNB-75 CNS
SR leukemia = tested on: SR leukemia
SW-620 colon = tested on: SW-620 colon
T-47D breast = tested on: T-47D breast
TK-10 renal = tested on: TK-10 renal
U251 CNS = tested on: U251 CNS
UACC-257 melanoma = tested on: UACC-257 melanoma
UACC-62 melanoma = tested on: UACC-62 melanoma
UO-31 renal = tested on: UO-31 renal

COCCNc1ccc2ncc(C#Cc3cncc(C(=O)Nc4ccc(CN5CCN(C)CC5)c(C(F)(F)F)c4)c3)n2n1
GI50 (786-0 renal): 236 nM | TGI (786-0 renal): 939 nM | GI50 (A498 renal): 221 nM | TGI (A498 renal): 474 nM | GI50 (A549 NSCLC): 208 nM | TGI (A549 NSCLC): 1120 nM | GI50 (ACHN renal): 157 nM | TGI (ACHN renal): 870 nM | GI50 (BT-549 breast): 434 nM | TGI (BT-549 breast): 1210 nM | GI50 (CAKI-1 renal): 113 nM | TGI (CAKI-1 renal): 327 nM | GI50 (CCRF-CEM leukemia): 24.9 nM | TGI (CCRF-CEM leukemia): 6680 nM | GI50 (COLO 205 colon): 120 nM | TGI (COLO 205 colon): 294 nM | GI50 (DU-145 prostate): 251 nM | TGI (DU-145 prostate): 1540 nM | GI50 (EKVX NSCLC): 186 nM | TGI (EKVX NSCLC): 807 nM | GI50 (HCC-2998 colon): 315 nM | TGI (HCC-2998 colon): 1090 nM | GI50 (HCT-116 colon): 80.4 nM | TGI (HCT-116 colon): 387 nM | GI50 (HCT-15 colon): 180 nM | TGI (HCT-15 colon): 715 nM | GI50 (HL-60(TB) leukemia): 134 nM | TGI (HL-60(TB) leukemia): 566 nM | GI50 (HOP-62 NSCLC): 242 nM | TGI (HOP-62 NSCLC): 1370 nM | GI50 (HOP-92 NSCLC): 50.3 nM | TGI (HOP-92 NSCLC): 229 nM | GI50 (HS 578T breast): 77.9 nM | TGI (HS 578T breast): 452 nM | GI50 (HT29 colon): 198 nM | TGI (HT29 colon): 954 nM | GI50 (IGROV1 ovarian): 123 nM | TGI (IGROV1 ovarian): 639 nM | GI50 (K-562 leukemia): 9.89 nM | TGI (K-562 leukemia): 540 nM | GI50 (KM12 colon): 5 nM | TGI (KM12 colon): 1200 nM | GI50 (LOX IMVI melanoma): 97.3 nM | TGI (LOX IMVI melanoma): 338 nM | GI50 (M14 melanoma): 125 nM | TGI (M14 melanoma): 408 nM | GI50 (MALME-3M melanoma): 181 nM | TGI (MALME-3M melanoma): 711 nM | GI50 (MCF7 breast): 139 nM | TGI (MCF7 breast): 933 nM | GI50 (MDA-MB-231 breast): 82.3 nM | TGI (MDA-MB-231 breast): 333 nM | GI50 (MDA-MB-435): 142 nM | TGI (MDA-MB-435): 843 nM | GI50 (MOLT-4 leukemia): 51.4 nM | TGI (MOLT-4 leukemia): 1510 nM | GI50 (NCI-H226 lung): 147 nM | TGI (NCI-H226 lung): 980 nM | GI50 (NCI-H460 lung): 123 nM | TGI (NCI-H460 lung): 621 nM | GI50 (NCI-H522 lung): 99.8 nM | TGI (NCI-H522 lung): 315 nM | GI50 (NCI/ADR-RES ovarian): 1890 nM | TGI (NCI/ADR-RES ovarian): 50000 nM | GI50 (OVCAR-3 ovarian): 232 nM | TGI (OVCAR-3 ovarian): 1340 nM | GI50 (OVCAR-4 ovarian): 352 nM | TGI (OVCAR-4 ovarian): 2030 nM | GI50 (OVCAR-5 ovarian): 234 nM | TGI (OVCAR-5 ovarian): 1400 nM | GI50 (OVCAR-8 ovarian): 197 nM | TGI (OVCAR-8 ovarian): 830 nM | GI50 (PC-3 prostate): 254 nM | TGI (PC-3 prostate): 2130 nM | GI50 (RPMI-8226 leukemia): 195 nM | TGI (RPMI-8226 leukemia): 719 nM | GI50 (RXF 393 renal): 145 nM | TGI (RXF 393 renal): 432 nM | GI50 (SF-268 CNS): 156 nM | TGI (SF-268 CNS): 737 nM | GI50 (SF-295 CNS): 708 nM | TGI (SF-295 CNS): 3330 nM | GI50 (SF-539 CNS): 41.4 nM | TGI (SF-539 CNS): 215 nM | GI50 (SK-MEL-2 melanoma): 97.8 nM | TGI (SK-MEL-2 melanoma): 273 nM | GI50 (SK-MEL-28 melanoma): 402 nM | TGI (SK-MEL-28 melanoma): 1300 nM | GI50 (SK-MEL-5 melanoma): 575 nM | TGI (SK-MEL-5 melanoma): 1240 nM | GI50 (SK-OV-3 ovarian): 426 nM | TGI (SK-OV-3 ovarian): 1290 nM | GI50 (SN12C renal): 88.8 nM | TGI (SN12C renal): 766 nM | GI50 (SNB-19 CNS): 289 nM | TGI (SNB-19 CNS): 1820 nM | GI50 (SNB-75 CNS): 25.7 nM | TGI (SNB-75 CNS): 126 nM | GI50 (SR leukemia): 78.3 nM | TGI (SR leukemia): 760 nM | GI50 (SW-620 colon): 83.1 nM | TGI (SW-620 colon): 257 nM | GI50 (T-47D breast): 325 nM | TGI (T-47D breast): 1580 nM | GI50 (TK-10 renal): 232 nM | TGI (TK-10 renal): 729 nM | GI50 (U251 CNS): 265 nM | TGI (U251 CNS): 984 nM | GI50 (UACC-257 melanoma): 692 nM | TGI (UACC-257 melanoma): 2130 nM | GI50 (UACC-62 melanoma): 284 nM | TGI (UACC-62 melanoma): 832 nM | GI50 (UO-31 renal): 777 nM | TGI (UO-31 renal): 1990 nM
